Measured values reported in patent US20120046273A1, “COMPOUNDS AND COMPOSITIONS FOR COGNITION-ENHANCEMENT, METHODS OF MAKING, AND METHODS OF TREATING” (MITHRIDION, INC., priority 2009, published 2012).
“Also recorded” adds a separate entry of the source. Read-outs that look alike come from different tables or passages of the source.

Legend:
[1] = system: pooled male Sprague-Dawley rat liver microsomes; test: Metabolism by rat liver microsomes; assay type: in vitro ADME; conditions: 6 hours incubation
Protocol: Compounds were incubated with pooled male Sprague-Dawley rat liver microsomes (BD Biosciences, #452501) and an NADP-regenerating system in a phosphate buffer (pH 7.4) for a total of 6 hours. Aliquots were removed every 2 hours, and 1% formic acid was added to halt the reaction. Samples were centrifuged, filtered through 0.2 micron spinfilter and the amount of each compound in the supernatants was quantitated using LC/MS/MS.

[2] = target: T1, human muscarinic M1 receptors (Homo sapiens, UniProt P11229); test: Inositol phosphate production in huM1/A9L cells (IPOne TR-FRET); assay type: cell-based; conditions: for huM1/A9L ED50 relative to CCh: potency relative to carbachol; for huM1/A9L Smax: percentage of maximal stimulation by carbachol
T1 construct: expressed in transfected cells; host or cells: A9L cells (gift from Professor W Messer)
T1 sequence (P11229 1-460): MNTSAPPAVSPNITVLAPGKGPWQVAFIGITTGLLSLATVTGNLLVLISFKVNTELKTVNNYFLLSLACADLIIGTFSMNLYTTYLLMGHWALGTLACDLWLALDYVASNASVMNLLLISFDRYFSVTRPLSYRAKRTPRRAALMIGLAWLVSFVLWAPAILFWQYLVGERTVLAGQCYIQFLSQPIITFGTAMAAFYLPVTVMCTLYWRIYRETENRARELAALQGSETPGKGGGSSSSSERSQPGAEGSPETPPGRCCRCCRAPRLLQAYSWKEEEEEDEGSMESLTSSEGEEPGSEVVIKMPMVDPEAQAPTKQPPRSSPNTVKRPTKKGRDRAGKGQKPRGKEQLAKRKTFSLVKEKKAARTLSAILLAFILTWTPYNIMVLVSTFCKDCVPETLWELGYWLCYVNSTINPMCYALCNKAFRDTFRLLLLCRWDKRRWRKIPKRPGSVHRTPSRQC
Protocol: (§1) Muscarinic M1 and M3 agonist activity was evaluated by measuring the stimulation of inositol phosphate (IP) production in the presence of lithium chloride from A9L cells transfected with expression plasmids containing human muscarinic M1 and M3 receptors, respectively. The cell lines were a gift from Professor W Messer, and the methods were as described in Tejada F R et al. J. Med. Chem. 2006; 49: 7518-31 except that the assay was scaled down to run in 384 well plates, and IP was measured in the cell lysates using the non-isotopic IPOne TR-FRET assay (CIS-BIO, Inc).
(§2) Cells were grown to 90% confluence in 384 well hi-base plates (Greiner Bio-One), compounds were added at suitable concentrations in growth medium containing 10 mM LiCL, buffered with an extra 10 mM HEPES (pH7.4), and incubated for 60 minutes at 37° C. Cells were lysed and assayed for IP following the manufacturer's instructions.
(§3) The value for a full agonist is 100%, while partial agonists give values below 100%.

[3] = system: pooled male human liver microsomes; test: Metabolism by human liver microsomes; assay type: in vitro ADME; conditions: 6 hours incubation
Protocol: Compounds were incubated with pooled male human liver microsomes (BD Biosciences, #452172) and an NADP-regenerating system in a phosphate buffer (pH 7.4) for a total of 6 hours. Aliquots were removed every 2 hours, and 1% formic acid was added to halt the reaction. Samples were centrifuged, filtered through 0.2 micron spinfilter and the amount of each compound in the supernatants was quantitated using LC/MS/MS.

human FMO1 Supersomes = target: T2, human FMO1 Supersomes (Homo sapiens, UniProt Q01740); test: Metabolism by flavin monoxygenase 1 (FMO1) Supersomes; assay type: in vitro ADME
T2 construct: purchased BD Biosciences 456241
T2 sequence (Q01740 1-532): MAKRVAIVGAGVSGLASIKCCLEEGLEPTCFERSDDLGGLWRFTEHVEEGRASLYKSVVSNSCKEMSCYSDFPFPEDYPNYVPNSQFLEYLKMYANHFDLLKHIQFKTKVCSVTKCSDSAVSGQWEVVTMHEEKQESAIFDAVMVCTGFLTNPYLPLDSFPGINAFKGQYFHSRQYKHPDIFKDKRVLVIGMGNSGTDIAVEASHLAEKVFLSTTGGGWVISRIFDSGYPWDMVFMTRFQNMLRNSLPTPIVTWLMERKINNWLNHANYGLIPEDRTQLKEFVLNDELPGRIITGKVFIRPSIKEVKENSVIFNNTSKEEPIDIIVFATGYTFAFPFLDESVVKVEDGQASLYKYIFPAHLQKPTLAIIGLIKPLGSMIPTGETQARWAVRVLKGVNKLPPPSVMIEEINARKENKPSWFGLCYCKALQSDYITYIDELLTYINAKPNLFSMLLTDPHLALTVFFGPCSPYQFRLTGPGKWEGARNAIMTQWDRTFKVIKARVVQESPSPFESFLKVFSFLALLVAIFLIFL
Protocol: […] Aliquots were removed every 10 minutes, and 1% formic acid was added to halt the reaction. Samples were centrifuged, filtered through 0.2 micron spinfilter and the amount of each compound in the supernatants was quantitated using LC/MS/MS.

[4] = target: T3, human muscarinic M3 receptors (Homo sapiens, UniProt P20309); test: Inositol phosphate production in huM3/A9L cells (IPOne TR-FRET); assay type: cell-based; conditions: for huM3/A9L ED50 relative to CCh: potency relative to carbachol; for huM3/A9L Smax: percentage of maximal stimulation by carbachol
T3 construct: expressed in transfected cells; host or cells: A9L cells (gift from Professor W Messer)
Protocol: as §1, §2, §3

anesthetized rats = test: Salivation on iontophoretic transdermal delivery of agonist and antagonist from one patch; assay type: in vivo, rat; conditions: patch with 1 mg of 82 plus 0.01mg antagonist
Protocol: Experimental compounds and drug substances were delivered transdermally in rats using iontophoresis as follows. The fur was shaved from the backs of Long Evans Hooded rats weighing 225 to 325 grams, using electric clippers. Experimental compounds and drug substances were formulated at suitable concentrations an aqueous mixture of the following composition:
The polyvinyl alcohol/water was heated to 95 degC. until it became clear, then the other constituents were added and mixed well. The mixture was introduced into suitable molds containing a disc-shaped cavity 2.2 cm diameter and 2.2 mm deep. Molds may be fabricated using two glass sheets separated by a silicone rubber sheet with suitable sized cavities and filling ports cut-outs. The molds were subject to 3 freeze-thaw cycles at −80degC. and 20degC. until a firm cryogel was obtained. The gels were separated from the molds and trimmed into a circular shape. The gel was placed in a silicone rubber casing with one face in contact with a circular silver foil anodic electrode (22 mm dia/250 microns thick), and the assembly was placed on the shaved skin of the rat such that the other face was in contact with the skin on one side of the back of the rat. The rubber casing formed a seal over and around the gel/electrode assembly. […] This was placed on the other side of the shaved back of the rat, the edges of the gel discs being about 20 mm apart at their nearest point. A DC voltage was applied across the two patches from a constant-current DC power supply and the voltage adjusted to obtain the desired current, such that the skin of the animal completed the electrical circuit.
The devices were placed on shaved backs of anesthetized rats and salivation was measured.
The animals were placed slightly head-down on an inclined, heated ramp. Rectal temperature was monitored using a thermocouple and the temperature of the heating pad was adjusted manually to maintain normal body temperature. Saliva was collected from the mouth by absorption onto pre-weighed slips of filter paper. The filter paper was changed periodically and the amount of saliva was measured by weighing the filter paper slips

[5] = system: salivary gland inositol phosphate signaling pathway; test: In vivo tissue inositol phosphate signaling pathway activation, salivary gland; set-up: species or system rat; conditions: for block of increase in salivary gland inositol phosphate caused by 82: 1 mg/kg of 82; for inhibition of salivary gland inositol phosphate response to MCD-386: 50 mg/kg MCD-386, antagonist 0.3 mg/kg
Protocol: (§4) Experimental compounds or drug substances were administered using standard techniques to Long Evans Hooded rats weighing 225 to 350 grams, and which had been pretreated with a subcutaneous injection of lithium chloride at a suitable dose between 3 and 10 mmoles per kg. At suitable times the animals were briefly anesthetized using 5% isoflurane and euthanized by decapitation. The brains and submaxillary salivary glands were rapidly dissected out, and the hippocampuses were dissected from the brains. The dissected tissues were homogenized in a suitable volume of ice-cold phosphate-buffered saline containing 10 mM lithium chloride, pH7.4, using a tissue homogenizer, and used immediately or frozen in aliquots at −80degC. for future use. The concentration of inositol-1-phosphate was determined in the homogenates using the IPOne TR-FRET assay (CisBio cat no 621PAPEB), following the manufacturer's instruction

[6] = system: hippocampal inositol phosphate signaling pathway; test: In vivo tissue inositol phosphate signaling pathway activation, hippocampus; set-up: species or system rat; conditions: 1 mg/kg of 82; antagonist 0.03 mg/kg
Protocol: as §4

[7] = system: apomorphine induced climbing; test: Apomorphine induced climbing model of psychosis; assay type: in vivo, CD-I mice; conditions: mice, sc
Protocol: As described in Costall et. al. European Journal of Pharmacology 1978, 50, 39. individual CD-I mice, 1-2 months old, were placed in a cylindrical wire mesh cage (13.2 cm high×13.2 cm diameter) constructed of steel wire 1 mm thick spaced at 1.2 cm^2. Cylinders were placed in a standard OptiMICE mouse cage (29×32×9×29 cm wide and 14 cm high) with adequate wood chip bedding provided. Observations of climbing (defined as 3 or more paws off the ground) were carried out every 5 minutes at a duration of 1 minute for 30 minutes. Animals were injected subcutaneously under isoflurane anesthesia with test compounds, reference compounds, which included clozapine, haloperidol, olanzapine and xanomeline, or PBS as a control. This was followed 5 minutes later by 2 mg/kg apomorphine hydrochloride. All drugs were dissolved in PBS or a mixture of (by volume) 96% PBS and 4% hydroxypropyl-beta-cyclodextrin, and dosed at a rate of 5 ml per kilogram of body weight. Following injections, animals were replaced in the mesh cages and observed for climbing (defined as 3 or more paws off the ground) every 5 minutes for a duration of 1 minute for 60 minutes after dosing.

[8] = antagonist 0.1 mg/kg (oxybutinin or darifenacin)

T3 sequence (P20309 whole entry): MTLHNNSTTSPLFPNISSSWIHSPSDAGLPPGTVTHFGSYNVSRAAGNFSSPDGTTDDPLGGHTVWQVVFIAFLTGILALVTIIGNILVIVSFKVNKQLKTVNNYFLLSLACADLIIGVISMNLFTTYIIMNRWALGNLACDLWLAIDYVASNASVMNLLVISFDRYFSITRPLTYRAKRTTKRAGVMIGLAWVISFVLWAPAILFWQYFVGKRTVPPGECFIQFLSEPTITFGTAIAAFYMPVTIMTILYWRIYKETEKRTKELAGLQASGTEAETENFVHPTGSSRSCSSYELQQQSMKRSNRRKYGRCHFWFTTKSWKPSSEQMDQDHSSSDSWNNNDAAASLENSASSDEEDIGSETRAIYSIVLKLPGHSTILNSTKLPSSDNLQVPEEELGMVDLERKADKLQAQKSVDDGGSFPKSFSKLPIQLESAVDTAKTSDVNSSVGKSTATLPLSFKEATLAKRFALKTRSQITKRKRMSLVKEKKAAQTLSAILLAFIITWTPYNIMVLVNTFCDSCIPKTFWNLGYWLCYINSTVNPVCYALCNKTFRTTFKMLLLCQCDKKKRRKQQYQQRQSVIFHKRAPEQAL

Cc1noc(C2=CCCN(C)C2)n1 [Compound 126, 3-methyl-5-(1-methyl-1,2,5,6-tetrahydropyridin-3-yl)-1,2,4-oxadiazole, reference compound]
PAMPA (? × 106) (PAMPA test): 12.75 ? × 106
rate of crossing the lipid layer in the PAMPA test (PAMPA test): slightly better
extent of metabolism in rat liver microsomes [1]: nearly completely metabolized
potency and efficacy at M1 muscarinic receptors [2]: reasonable potency and efficacy
selectivity between M1 and M3 receptors [2]: some selectivity for M1 versus M3 receptors
huM1/A9L ED50 relative to CCh [2]: + (potency 2-10x CCh)
extent of metabolism in human liver microsomes [3]: nearly completely metabolized
extent of metabolism in FMO Supersomes (human FMO1 Supersomes): almost completely metabolized; also recorded: nearly completely metabolized
huM3/A9L ED50 relative to CCh [4]: + (potency 2-10x CCh)

C[N+]1(C)CCC(OC(=O)C(O)(c2ccccc2)C2CCCC2)C1 (stereo not shown) [glycopyrrolate]
reduction of salivation caused by transdermal iontophoretic delivery of 82 (anesthetized rats): greatly reduced
block of increase in salivary gland inositol phosphate caused by 82 ([5]; antagonist 0.03 mg/kg): can block
inhibition of salivary gland inositol phosphate response to MCD-386 [5]: virtually completed inhibited
block of increase in hippocampal inositol phosphate caused by 82 [6]: without blocking the increase in hippocampal inositol phosphate

NC(=O)C(c1ccccc1)(c1ccccc1)[C@@H]1CCN(CCc2ccc3c(c2)CCO3)C1 [darifenacin]
reduction of salivation caused by transdermal iontophoretic delivery of 82 (anesthetized rats): reduced salivation, but were less effective
block of increase in salivary gland inositol phosphate caused by 82 [5, 8]: less effective
inhibition of salivary gland inositol phosphate response to MCD-386 [5]: less effective

CC(C)[N+](C)(CCOC(=O)C1c2ccccc2Oc2ccccc21)C(C)C [propantheline]
reduction of salivation caused by transdermal iontophoretic delivery of 82 (anesthetized rats): greatly reduced
block of increase in salivary gland inositol phosphate caused by 82 ([5]; antagonist 0.03 mg/kg): can block
inhibition of salivary gland inositol phosphate response to MCD-386 [5]: virtually completed inhibited
block of increase in hippocampal inositol phosphate caused by 82 [6]: without blocking the increase in hippocampal inositol phosphate

Clc1cccc(Cl)c1N=C1NCCN1 [Clonidine, reference compound]
PAMPA (? × 106): 7.95 ? × 106

CCN(CC)CC#CCOC(=O)C(O)(c1ccccc1)C1CCCCC1 (stereo not shown) [oxybutinin]
reduction of salivation caused by transdermal iontophoretic delivery of 82 (anesthetized rats): reduced salivation, but were less effective
block of increase in salivary gland inositol phosphate caused by 82 [5, 8]: less effective
inhibition of salivary gland inositol phosphate response to MCD-386 [5]: less effective

[2H]C([2H])([2H])c1noc(C2CCCNC2)n1 (stereo not shown) [Compound 88, 3-D3-Methyl-5-(piperidin-3-yl)-1,2,4-oxadiazole]
activity in the apomorphine induced climbing model [7]: potent and effective
extent of metabolism in rat liver microsomes [1]: far more stable than compounds 126 and 127
huM1/A9L Smax [2]: 116%
huM1/A9L ED50 relative to CCh [2]: + (potency 2-10x CCh)
extent of metabolism in human liver microsomes [3]: metabolized significantly less in human liver microsomes than in rat liver microsomes
extent of metabolism in FMO Supersomes (human FMO1 Supersomes): less than half metabolized
huM3/A9L Smax [4]: 60%
huM3/A9L ED50 relative to CCh [4]: +/− (potency 0.5-2x CCh)

Cc1noc(C2CN3CCC2CC3)n1 (stereo not shown) [Compound 127, 3-methyl-5-(quinuclidin-3-yl)-1,2,4-oxadiazole, reference compound]
PAMPA (? × 106) (PAMPA test): 3.02 ? × 106
rate of crossing the lipid layer in the PAMPA test (PAMPA test): significantly better
selectivity between M1 and M3 receptors [2]: essentially non-selective
huM1/A9L Smax [2]: 50-100%
huM1/A9L ED50 relative to CCh [2]: ++ (potency >10x CCh)
extent of metabolism in FMO Supersomes (human FMO1 Supersomes): almost completely metabolized
huM3/A9L Smax [4]: 50-100%
huM3/A9L ED50 relative to CCh [4]: ++ (potency >10x CCh)
